These results are taken from patent publication US20260285816A1, “Piperazinyl-Modified Quinazolinyl-Aryl Urea Derivative, And Preparation Method And Use Thereof” (Guangxi Normal University, priority 2025, published 2026).

Like-named read-outs stand apart in the source and are kept apart here.

What all share (type): cell-based, human
For one test, the system named is A549 cells. The experiment in a line: CCK-8 anti-proliferative assay, A549. The note with it: Homo sapiens, A549, co-incubated 48 h, read-out: Anti-proliferative activity (IC50 ± standard deviation) A549. The procedure, abridged:
(§1)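 Dose range 1–30 μM final (nine levels, n=3), added at 70% confluency to 5,000 cells/well cultured at 37° C., 5% CO2. CCK-8 incubation 1-4 h depending on cell type.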

For another test, the system named is T24 cells. The test can be described thus: CCK-8 anti-proliferative assay, T24. The note with it: Homo sapiens, T-24, co-incubated 48 h, read-out: Anti-proliferative activity (IC50 ± standard deviation) T24. The method, boiled down:
(§2)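 Absorbance at 450 nm after CCK-8 labelling (1–4 h, varying by cell line) gave inhibition relative to untreated control, from which IC50 values were derived. Compounds were applied at final concentrations of 1 to 30 μM in triplicate wells once cultures reached 70% confluency, with co-incubation for designated durations.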
In general terms: Tetrazolium dyes change colour on reduction, which living cells bring about.

A further test deals with Hep G2 cells. The test can be described thus: CCK-8 anti-proliferative assay, Hep G2. To be noted: Homo sapiens, HepG2, co-incubated 48 h, read-out: Anti-proliferative activity (IC50 ± standard deviation) Hep G2. The procedure, abridged:
as §2

A further test relates to SK-OV-3 cells. The experiment in a line: CCK-8 anti-proliferative assay, SK-OV-3. The note with it: Homo sapiens, SK-OV-3, co-incubated 48 h, read-out: Anti-proliferative activity (IC50 ± standard deviation) SK-OV-3. The procedure, abridged:
as §1

The next test relates to MG-63 cells. The experiment in a line: CCK-8 anti-proliferative assay, MG-63. To be noted: Homo sapiens, MG-63, co-incubated 48 h, read-out: Anti-proliferative activity (IC50 ± standard deviation) MG-63. The method, boiled down:
as §2

In a further test the test system is PANC-1 cells. The test can be described thus: CCK-8 anti-proliferative assay, PANC-1. The note with it: Homo sapiens, PANC-1, co-incubated 48 h, read-out: Anti-proliferative activity (IC50 ± standard deviation) PANC-1. The method, boiled down: as §2
The test system of test [1] is immortalized ureteral epithelial cells (SV-HUC-1). The test can be described thus: CCK-8 anti-proliferative assay, normal cells SV-HUC-1. To be noted: Homo sapiens, SV-HUC1, normal cells, co-incubated 48 h, read-out: Anti-proliferative activity (IC50 ± standard deviation) SV-HUC-1. The procedure, abridged: as §1
In another test the test system is 5637 cells. The test can be described thus: CCK-8 anti-proliferative assay, 5637. To be noted: Homo sapiens, co-incubated 48 h, read-out: Anti-proliferative activity (IC50 ± standard deviation) 5637. The method, boiled down:
as §1

The test system of a further test is 143B cells. The test can be described thus: CCK-8 anti-proliferative assay, 143B. To be noted: Homo sapiens, 143B, co-incubated 48 h, read-out: Anti-proliferative activity (IC50 ± standard deviation) 143B. The method, boiled down: as §2
A further test has as its system BxPC-3 cells. The test can be described thus: CCK-8 anti-proliferative assay, BxPC-3. To be noted: Homo sapiens, BXPC-3, co-incubated 48 h, read-out: Anti-proliferative activity (IC50 ± standard deviation) BxPC-3. The method, boiled down: as §2
The test system of a further test is J82 cells. The experiment in a line: CCK-8 anti-proliferative assay, J82. The note with it: Homo sapiens, J82, co-incubated 48 h, read-out: Anti-proliferative activity (IC50 ± standard deviation) J82. The procedure, abridged:
as §1

A further test relates to HeLa cells. The test can be described thus: CCK-8 anti-proliferative assay, HeLa. The note with it: Homo sapiens, HeLa, co-incubated 48 h, read-out: Anti-proliferative activity (IC50 ± standard deviation) HeLa. The method, boiled down:
as §1

The test system of another test is MCF-7 cells. The experiment in a line: CCK-8 anti-proliferative assay, MCF-7. The note with it: Homo sapiens, MCF7, co-incubated 48 h, read-out: Anti-proliferative activity (IC50 ± standard deviation) MCF-7. The method, boiled down:
as §1

The subject of test [2] is embryonic lung fibroblasts (WI-38). The experiment in a line: CCK-8 anti-proliferative assay, normal cells WI-38. To be noted: Homo sapiens, read-out: Anti-proliferative activity (IC50 ± standard deviation) WI-38. The procedure, abridged:
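Logarithmic-phase cells are plated at 5,000 cells per well and incubated at 37° C. with 5% CO2. At 70% confluency, compound is added at nine final concentrations from 1 to 30 μM. After exposure, CCK-8 is added and OD at 450 nm measured to calculate IC50.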

The next test deals with UM-UC-3 cells. The experiment in a line: CCK-8 anti-proliferative assay, UM-UC-3. The note with it: Homo sapiens, UMUC3, co-incubated 48 h, read-out: Anti-proliferative activity (IC50 ± standard deviation) UM-UC-3. The method, boiled down:
as §1

[3] abbreviates: WI-38, Table 13, co-incubated 48 h.
Setting [4] is: WI-38, Table 9, co-incubated 48 h.

A word on the IC50: it is the concentration at which inhibition is half-maximal. In the case of `COc1cc2ncnc(NCc3cccc(NC(=O)Nc4ccc(C(C)C)cc4)c3)c2cc1OCCCCCCN1CCC(CN2CCN(c3ccccn3)CC2)CC1` [Compound 8-2i, N-(3-(((7-methoxy-6-((6-(4-((4-(pyridin-2-yl)piperazin-1-yl)methyl)piperidin-1-yl)hexyl)oxy)quinazolin-4-yl)amino)methyl)phenyl)-N′-(4-isopropylphenyl)urea], the 50% inhibitory concentration (IC50) with A549 cells (Table 13) came to 7.63 ± 0.87 µM; in the test on T24 cells (Table 10), 5.92 ± 0.47 µM; in the test on Hep G2 cells (Table 12), 3.85 ± 0.29 µM; in the test with SK-OV-3 cells (Table 12), 6.69 ± 0.49 µM; with MG-63 cells (Table 11), 4.79 ± 0.46 µM; with PANC-1 cells (Table 11), 9.42 ± 0.83 µM. Moreover, the IC50 was 10.8 ± 0.74 µM in test [1] (Table 13); 4.24 ± 0.32 µM in the test with 5637 cells (Table 10); 6.38 ± 0.33 µM with 143B cells (Table 11); 8.97 ± 0.89 µM in the test with BxPC-3 cells (Table 11); 5.88 ± 0.35 µM in the test on J82 cells (Table 10); 4.97 ± 0.48 µM in the test with HeLa cells (Table 12). Further, the IC50 in the test with MCF-7 cells (Table 12) stood at 6.21 ± 0.63 µM; in [2] (setting [3]), 10.5 ± 0.36 µM; in the test on UM-UC-3 cells (Table 10), 6.32 ± 0.44 µM.

Consider `COc1cc2ncnc(NCc3cccc(NC(=O)Nc4ccc(C(F)(F)F)cc4)c3)c2cc1OCCCCCCN1CCC(CN2CCN(c3ccccn3)CC2)CC1` [Compound 8-2t, N-(3-(((7-methoxy-6-((6-(4-((4-(pyridin-2-yl)piperazin-1-yl)methyl)piperidin-1-yl)hexyl)oxy)quinazolin-4-yl)amino)methyl)phenyl)-N′-(4-(trifluoromethyl)phenyl)urea], for which the IC50 in the test on A549 cells (Table 13) was 11.8 ± 0.88 µM; in the test with T24 cells (Table 10), 6.47 ± 0.25 µM; in the test with Hep G2 cells (Table 12) it was 4.76 ± 0.45 µM; in the test on SK-OV-3 cells (Table 12), 13.3 ± 0.84 µM; in the test on MG-63 cells (Table 11) it was 11.7 ± 0.92 µM; with PANC-1 cells (Table 11) it was 15.6 ± 0.93 µM. Moreover, the half-inhibitory concentration (IC50) is 8.92 ± 0.49 µM in [1] (Table 13); 7.32 ± 0.57 µM in the test on 5637 cells (Table 10); 9.42 ± 0.56 µM with 143B cells (Table 11); 11.3 ± 0.73 µM with BxPC-3 cells (Table 11); 5.46 ± 0.41 µM in the test on J82 cells (Table 10); 7.29 ± 0.24 µM in the test on HeLa cells (Table 12). Further, the figures for the IC50 (with MCF-7 cells (Table 12); in test [2] (setting [3]); with UM-UC-3 cells (Table 10)) were 5.94 ± 0.36 µM, 10.6 ± 0.64 µM and 6.79 ± 0.41 µM, respectively.

Regarding `COc1cc2ncnc(NCc3cccc(NC(=O)Nc4ccc(Cl)c(Cl)c4)c3)c2cc1OCCCCCCN1CCN(CCN2CCOCC2)CC1` [Compound 8-1o, N-(3-(((7-methoxy-6-((6-(4-(2-morpholinoethyl)piperazin-1-yl)hexyl)oxy)quinazolin-4-yl)amino)methyl)phenyl)-N′-(3,4-dichlorophenyl)urea], the IC50 is 11.8 ± 0.63 µM in the test on A549 cells (Table 8); 7.31 ± 0.55 µM in the test with T24 cells (Table 6); 6.83 ± 0.52 µM in the test on Hep G2 cells (Table 8); 9.34 ± 0.98 µM with SK-OV-3 cells (Table 9); 5.89 ± 0.47 µM in the test with MG-63 cells (Table 7); more than 30 µM with PANC-1 cells (Table 7). For the same compound, the half-inhibitory concentration (IC50) in [1] (Table 9) worked out at 10.7 ± 0.51 µM; with 5637 cells (Table 6), 5.34 ± 0.39 µM; in the test on 143B cells (Table 7), 5.99 ± 0.43 µM; in the test on BxPC-3 cells (Table 7) it was 7.73 ± 0.82 µM; in the test with J82 cells (Table 6) it was 6.88 ± 0.49 µM; with HeLa cells (Table 8), 12.4 ± 0.89 µM. Further, the half-inhibitory concentration (IC50) in the test on MCF-7 cells (Table 8) stood at 9.33 ± 0.71 µM; in [2] (setting [4]), 9.93 ± 0.53 µM; in the test on UM-UC-3 cells (Table 6) it was 5.84 ± 0.53 µM.

For the compound `COc1cc2ncnc(NCc3cccc(NC(=O)Nc4ccccc4Cl)c3)c2cc1OCCCCCCN1CCN(CCN2CCOCC2)CC1` [Compound 8-1m, N-(3-(((7-methoxy-6-((6-(4-(2-morpholinoethyl)piperazin-1-yl)hexyl)oxy)quinazolin-4-yl)amino)methyl)phenyl)-N′-(2-chlorophenyl)urea], the IC50 came to 15 ± 0.93 µM with A549 cells (Table 8); 8.82 ± 0.49 µM in the test with T24 cells (Table 6); 7.83 ± 0.66 µM in the test with Hep G2 cells (Table 8); 12.8 ± 0.42 µM with SK-OV-3 cells (Table 9); 5.69 ± 0.65 µM in the test with MG-63 cells (Table 7); 23.2 ± 2.03 µM in the test with PANC-1 cells (Table 7). Besides, the IC50 in test [1] (Table 9) was 12 ± 0.57 µM; with 5637 cells (Table 6) it was 6.06 ± 0.58 µM; in the test with 143B cells (Table 7), 5.62 ± 0.51 µM; in the test with BxPC-3 cells (Table 7), 7.79 ± 0.44 µM; in the test on J82 cells (Table 6), 7.21 ± 0.66 µM; in the test on HeLa cells (Table 8), 13.8 ± 0.77 µM. For the same compound, the IC50 was 14.8 ± 0.86 µM in the test on MCF-7 cells (Table 8), 14 ± 0.78 µM in test [2] (setting [4]) and 11.1 ± 0.74 µM with UM-UC-3 cells (Table 6).

Turning to `COc1cc2ncnc(NCc3cccc(NC(=O)Nc4ccc(Cl)c(C(F)(F)F)c4)c3)c2cc1OCCCCCCN1CCC(CN2CCN(c3ccccn3)CC2)CC1` [Compound 8-2v], the IC50 in the test on A549 cells (Table 13) was determined as 7.98 ± 0.92 µM; in the test on T24 cells (Table 10) it was 4.73 ± 0.42 µM; in the test with Hep G2 cells (Table 12) it was 4.97 ± 0.35 µM; in the test with SK-OV-3 cells (Table 12), 5.49 ± 0.63 µM; in the test with MG-63 cells (Table 11) it was 8.02 ± 0.79 µM; with PANC-1 cells (Table 11), 14.9 ± 0.79 µM. In addition, the half-inhibitory concentration (IC50) in test [1] (Table 13) was 7.33 ± 0.46 µM; in the test with 5637 cells (Table 10) it was 11.8 ± 0.95 µM; in the test on 143B cells (Table 11), 6.84 ± 0.59 µM; with BxPC-3 cells (Table 11), 14.9 ± 1.28 µM; with J82 cells (Table 10) it was 11.1 ± 0.69 µM; in the test with HeLa cells (Table 12), 6.98 ± 0.83 µM. Moreover, the 50% inhibitory concentration (IC50) turned out to be 4.41 ± 0.27 µM with MCF-7 cells (Table 12), 8.71 ± 0.52 µM in test [2] (setting [3]) and 6.77 ± 0.69 µM with UM-UC-3 cells (Table 10).

Regarding `COc1cc2ncnc(NCc3cccc(NC(=O)Nc4ccc(Cl)cc4)c3)c2cc1OCCCCCCN1CCC(CN2CCN(c3ccccn3)CC2)CC1` [Compound 8-2q, N-(3-(((7-methoxy-6-((6-(4-((4-(pyridin-2-yl)piperazin-1-yl)methyl)piperidin-1-yl)hexyl)oxy)quinazolin-4-yl)amino)methyl)phenyl)-N′-(4-chlorophenyl)urea], the IC50 in the test on A549 cells (Table 13) was 13.3 ± 0.86 µM; in the test on T24 cells (Table 10), 6.76 ± 0.38 µM; in the test on Hep G2 cells (Table 12), 10.7 ± 0.98 µM; in the test with SK-OV-3 cells (Table 12) it was 5.62 ± 0.47 µM; in the test with MG-63 cells (Table 11), 8.61 ± 0.53 µM; in the test on PANC-1 cells (Table 11) it was 15.2 ± 0.67 µM. The half-inhibitory concentration (IC50) in test [1] (Table 13) amounted to 9.49 ± 0.73 µM; in the test on 5637 cells (Table 10), 4.32 ± 0.33 µM; in the test with 143B cells (Table 11), 7.08 ± 0.85 µM; with BxPC-3 cells (Table 11), 13.2 ± 0.78 µM; in the test on J82 cells (Table 10) it was 6.69 ± 0.53 µM; in the test on HeLa cells (Table 12), 7.72 ± 0.34 µM. Besides, the IC50 in the test on MCF-7 cells (Table 12) worked out at 6.44 ± 0.71 µM; in [2] (setting [3]) it was 7.36 ± 0.23 µM; with UM-UC-3 cells (Table 10) it was 7.19 ± 0.47 µM.
